Test results as given in US20100120736A1, “Mineralocorticoid Receptor Antagonists” (N.V. ORGANON, priority 2007, published 2010).

Legend:
[1] = target: T1, mineralocorticoid receptor (MR) (Rattus norvegicus, UniProt P22199); test: In vitro binding to mineralocorticoid receptor (MR), displacement of tritiated aldosterone; details: read-out: Mineralocorticoid receptor Antagonist activity IC50
T1 sequence (P22199 1-981): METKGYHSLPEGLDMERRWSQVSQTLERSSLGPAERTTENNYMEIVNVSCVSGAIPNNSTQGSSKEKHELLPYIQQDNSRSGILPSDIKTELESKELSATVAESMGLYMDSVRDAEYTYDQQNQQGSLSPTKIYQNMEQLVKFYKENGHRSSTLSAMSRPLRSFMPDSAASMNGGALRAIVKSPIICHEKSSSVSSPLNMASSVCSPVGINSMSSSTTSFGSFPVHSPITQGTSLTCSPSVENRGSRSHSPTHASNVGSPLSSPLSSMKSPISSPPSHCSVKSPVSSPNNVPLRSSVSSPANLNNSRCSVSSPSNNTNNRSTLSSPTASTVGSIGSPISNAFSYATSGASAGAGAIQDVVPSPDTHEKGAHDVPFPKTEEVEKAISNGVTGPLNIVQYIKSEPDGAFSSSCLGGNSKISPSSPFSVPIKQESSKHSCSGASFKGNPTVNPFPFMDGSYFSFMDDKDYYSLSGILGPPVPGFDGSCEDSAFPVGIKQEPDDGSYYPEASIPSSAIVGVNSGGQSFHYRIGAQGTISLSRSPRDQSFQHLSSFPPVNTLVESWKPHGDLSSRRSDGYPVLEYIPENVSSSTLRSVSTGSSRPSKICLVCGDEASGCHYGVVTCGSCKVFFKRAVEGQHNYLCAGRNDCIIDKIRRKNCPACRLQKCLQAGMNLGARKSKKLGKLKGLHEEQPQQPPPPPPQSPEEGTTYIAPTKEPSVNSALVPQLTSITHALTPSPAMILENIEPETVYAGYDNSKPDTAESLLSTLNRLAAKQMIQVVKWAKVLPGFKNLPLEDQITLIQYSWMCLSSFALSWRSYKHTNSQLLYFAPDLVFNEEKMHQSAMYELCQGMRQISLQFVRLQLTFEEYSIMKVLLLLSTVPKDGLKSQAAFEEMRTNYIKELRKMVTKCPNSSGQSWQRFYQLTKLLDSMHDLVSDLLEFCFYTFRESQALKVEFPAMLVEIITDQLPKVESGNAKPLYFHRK
Description: In vitro binding to the mineralocorticoid receptor (MR) was essentially carried out as reported in the literature (C. E. Gomez-Sanchez and E. P. Gomez-Sanchez, Endocrinology 113 (1983) 1004-1009, Z. S. Krozowski and J. W. Funder, Proc. Natl. Acad. Sci. USA 80 (1983) 6056-; J. H. M. H. Reul and E. R. de Kloet, Endocrinology 117 (1985) 2505-2511; K. E. Sheppard and J. W. Funder, J. Steroid Biochem. 28 (1987) 737-742).
Male Wistar rats Were adrenalectomised and perfused with cold saline after 3 days of survival. Kidneys and hippocampi, respectively, were rapidly dissected and homogenized. A cylosolic fraction was prepared by centrifugation.
Unlabeled RU 28362 (10 nM), a specific GR binder, was added for saturating glucocorticoid receptors. Compounds to be tested, dissolved in DMF and diluted with water to obtain the required concentration, were added in an increasing concentration range (1.0-1000 nM) and allowed to incubate for 3 h. Incubations were terminated by adding dextran-coated charcoal suspension, followed by centrifugation. The supernatant was assayed with a scintillation counter for unbound labelled ligand.

SMILES	melting point	IC50 [1]
C=C(C)[C@H]1CC[C@H]2[C@@H]3C=CC4=CC(=O)CC[C@]4(C)[C@H]3[C@@H](O)C[C@]12C	153 to 155 °C	–
C[C@]12C[C@H](O)[C@H]3[C@@H](CCC4=CC(=O)CC[C@@]43C)[C@@H]1CC[C@@H]2C(=O)CO [Corticosterone, reference compound]	–	5 nM
CC(=O)S[C@@H]1CC2=CC(=O)CC[C@]2(C)[C@H]2CC[C@@]3(C)[C@@H](CC[C@@]34CCC(=O)O4)[C@H]12 [Spironolactone, reference compound]	–	6 nM
C=C(C)[C@H]1CC[C@H]2[C@@H]3CCC4=CC(=O)CC[C@]4(C)[C@H]3[C@@H](O)C[C@]12C [synthetic example 1, (11β)-11-hydroxy-20-methylpregna-4,20-dien-3-one]	–	0.44 nM
CC[C@H]1CC[C@H]2[C@@H]3CCC4=CC(=O)C=C[C@]4(C)[C@H]3[C@@H](O)C[C@]12C [synthetic example 14, (11β)-11-hydroxypregna-1,4-dien-3-one]	–	0.12 nM
